What all share (assay type): functional, organism-based
For assay [1], the system named is Rattus norvegicus. As to the kind of experiment: Analgesic activity in rat acute pain model at 1 to 10 mg/kg by hot plate test. The note with it: dose 1-10 mg/kg.
For assay [2], the system named is Rattus norvegicus. As to the kind of experiment: Anti-allodynic activity in rat model of STZ induced diabetic neuropathy assessed as reduction in mechanical allodynia by measuring increase in paw withdrawal threshold at 25 mg/kg, po measured for 90 min by electronic von frey test.
The subject of assay [3] is Rattus norvegicus. As to the kind of experiment: Anti-allodynic activity in rat model of STZ induced diabetic neuropathy assessed as reduction in mechanical allodynia by measuring increase in paw withdrawal threshold at 1 mg/kg, po measured after 30 min by electronic von frey test.
Assay [4] deals with Rattus norvegicus. As to the kind of experiment: Anti-allodynic activity in rat model of STZ induced diabetic neuropathy assessed as reduction in mechanical hyperalgesia by measuring increase in weight bearing at 25 mg/kg, po measured after 90 min by paw pressure test.
The subject of assay [5] is Mus musculus. As to the kind of experiment: Anti-allodynic activity in mouse model of CCI induced neuropathic pain assessed as increase in paw withdrawal threshold at 3 mg/kg, po by static von frey test.
Assay [6] has as its system Rattus norvegicus. As to the kind of experiment: Anti-allodynic activity in rat model of STZ induced diabetic neuropathy assessed as reduction in mechanical hyperalgesia by measuring increase in weight bearing at 1 mg/kg, po measured after 30 min by paw pressure test.
Assay [7] has as its system Rattus norvegicus. As to the kind of experiment: Analgesic activity in rat acute pain model at 1 to 10 mg/kg by tail flick test. Particulars: dose 1-10 mg/kg. Background: Hot-plate and tail-flick tests time the reaction to a heat stimulus.
In assay [8] the test system is Rattus norvegicus. As to the kind of experiment: Analgesic activity in rat acute pain model at 3 mg/kg by hot plate test.
Assay [9] relates to Rattus norvegicus. As to the kind of experiment: Analgesic activity in rat acute pain model at 3 mg/kg by tail flick test.

Each structure is given as a SMILES string. The source made the active and inactive calls.

`CN1CCc2c(c3cccc4c3n2CCc2ccccc2-4)C1`: the result in assay [1] and in assay [7] was inactive. The outcome in assay [2], in assay [3], in assay [4], in assay [5] and in assay [6] was Active.
As to `CN1CC[C@]23c4c5ccc(O)c4O[C@H]2[C@@H](O)C=C[C@H]3[C@H]1C5`, the outcome in assay [8] and in assay [9] was Active.

(Values after ChEMBL document CHEMBL5365472, “DDD-028: A potent, neuroprotective, non-opioid compound for the treatment of diabetic neuropathy” (Bioorg Med Chem Lett, 2023).)
